Calls of active or inactive are those of the source.
Columns and labels:
Exodeoxyribonuclease V = biological target: T1, Exodeoxyribonuclease V (Escherichia coli (strain K12), UniProt P04993+P07648+P08394); experiment: E. coli RecBCD inhibitors, dose response, counter-screen for AddAB inhibitor project, absorbance, V66 E. coli, mutant T4 phage (AID 492957); format: functional, cell-based, Escherichia coli str. K-12 substr. MG1655
T1 sequence (P04993 whole entry): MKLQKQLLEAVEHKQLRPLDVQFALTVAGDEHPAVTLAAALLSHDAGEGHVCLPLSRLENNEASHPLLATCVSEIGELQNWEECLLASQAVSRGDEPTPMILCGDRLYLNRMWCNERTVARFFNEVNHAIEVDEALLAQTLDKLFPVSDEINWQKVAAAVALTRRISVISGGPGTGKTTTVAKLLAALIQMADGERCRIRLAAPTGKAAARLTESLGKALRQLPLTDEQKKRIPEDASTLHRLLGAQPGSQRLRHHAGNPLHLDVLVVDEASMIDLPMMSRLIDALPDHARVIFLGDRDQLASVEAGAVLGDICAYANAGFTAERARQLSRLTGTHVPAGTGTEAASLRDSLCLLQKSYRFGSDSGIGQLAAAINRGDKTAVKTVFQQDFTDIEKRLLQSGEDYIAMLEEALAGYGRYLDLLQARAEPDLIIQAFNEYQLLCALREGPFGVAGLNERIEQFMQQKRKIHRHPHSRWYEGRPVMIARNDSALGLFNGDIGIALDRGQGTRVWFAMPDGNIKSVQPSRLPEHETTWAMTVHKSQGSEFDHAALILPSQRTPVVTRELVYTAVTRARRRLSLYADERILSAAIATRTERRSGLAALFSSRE
T1 sequence (P07648 whole entry): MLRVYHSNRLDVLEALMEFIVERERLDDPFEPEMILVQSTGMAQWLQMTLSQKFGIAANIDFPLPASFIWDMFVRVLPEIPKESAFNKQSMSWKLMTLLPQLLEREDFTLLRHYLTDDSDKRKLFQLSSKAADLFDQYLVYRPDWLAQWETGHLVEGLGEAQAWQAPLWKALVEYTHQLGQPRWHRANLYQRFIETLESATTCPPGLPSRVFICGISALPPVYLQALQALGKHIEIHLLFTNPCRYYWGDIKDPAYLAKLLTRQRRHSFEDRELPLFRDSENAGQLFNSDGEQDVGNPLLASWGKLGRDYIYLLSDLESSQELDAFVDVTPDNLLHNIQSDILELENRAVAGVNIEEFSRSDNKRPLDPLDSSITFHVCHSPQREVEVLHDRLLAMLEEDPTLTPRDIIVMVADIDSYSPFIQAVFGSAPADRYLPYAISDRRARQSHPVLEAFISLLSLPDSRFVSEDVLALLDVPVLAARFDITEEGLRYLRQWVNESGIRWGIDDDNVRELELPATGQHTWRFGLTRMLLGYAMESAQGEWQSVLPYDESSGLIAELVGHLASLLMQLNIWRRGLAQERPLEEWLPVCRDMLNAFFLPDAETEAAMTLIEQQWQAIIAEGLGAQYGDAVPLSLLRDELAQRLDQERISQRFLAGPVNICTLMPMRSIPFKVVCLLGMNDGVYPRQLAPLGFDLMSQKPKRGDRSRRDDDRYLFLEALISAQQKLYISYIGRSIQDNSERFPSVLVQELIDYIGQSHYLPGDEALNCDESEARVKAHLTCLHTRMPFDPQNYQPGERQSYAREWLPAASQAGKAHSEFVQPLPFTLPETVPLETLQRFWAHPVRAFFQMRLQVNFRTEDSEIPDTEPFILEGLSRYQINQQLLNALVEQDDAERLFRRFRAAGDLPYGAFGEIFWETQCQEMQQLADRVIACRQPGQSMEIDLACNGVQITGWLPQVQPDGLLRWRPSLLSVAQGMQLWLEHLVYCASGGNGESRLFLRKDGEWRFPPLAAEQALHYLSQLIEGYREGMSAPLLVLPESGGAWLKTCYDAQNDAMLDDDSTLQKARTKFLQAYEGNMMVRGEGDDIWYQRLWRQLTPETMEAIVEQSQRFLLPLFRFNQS
T1 sequence (P08394 whole entry): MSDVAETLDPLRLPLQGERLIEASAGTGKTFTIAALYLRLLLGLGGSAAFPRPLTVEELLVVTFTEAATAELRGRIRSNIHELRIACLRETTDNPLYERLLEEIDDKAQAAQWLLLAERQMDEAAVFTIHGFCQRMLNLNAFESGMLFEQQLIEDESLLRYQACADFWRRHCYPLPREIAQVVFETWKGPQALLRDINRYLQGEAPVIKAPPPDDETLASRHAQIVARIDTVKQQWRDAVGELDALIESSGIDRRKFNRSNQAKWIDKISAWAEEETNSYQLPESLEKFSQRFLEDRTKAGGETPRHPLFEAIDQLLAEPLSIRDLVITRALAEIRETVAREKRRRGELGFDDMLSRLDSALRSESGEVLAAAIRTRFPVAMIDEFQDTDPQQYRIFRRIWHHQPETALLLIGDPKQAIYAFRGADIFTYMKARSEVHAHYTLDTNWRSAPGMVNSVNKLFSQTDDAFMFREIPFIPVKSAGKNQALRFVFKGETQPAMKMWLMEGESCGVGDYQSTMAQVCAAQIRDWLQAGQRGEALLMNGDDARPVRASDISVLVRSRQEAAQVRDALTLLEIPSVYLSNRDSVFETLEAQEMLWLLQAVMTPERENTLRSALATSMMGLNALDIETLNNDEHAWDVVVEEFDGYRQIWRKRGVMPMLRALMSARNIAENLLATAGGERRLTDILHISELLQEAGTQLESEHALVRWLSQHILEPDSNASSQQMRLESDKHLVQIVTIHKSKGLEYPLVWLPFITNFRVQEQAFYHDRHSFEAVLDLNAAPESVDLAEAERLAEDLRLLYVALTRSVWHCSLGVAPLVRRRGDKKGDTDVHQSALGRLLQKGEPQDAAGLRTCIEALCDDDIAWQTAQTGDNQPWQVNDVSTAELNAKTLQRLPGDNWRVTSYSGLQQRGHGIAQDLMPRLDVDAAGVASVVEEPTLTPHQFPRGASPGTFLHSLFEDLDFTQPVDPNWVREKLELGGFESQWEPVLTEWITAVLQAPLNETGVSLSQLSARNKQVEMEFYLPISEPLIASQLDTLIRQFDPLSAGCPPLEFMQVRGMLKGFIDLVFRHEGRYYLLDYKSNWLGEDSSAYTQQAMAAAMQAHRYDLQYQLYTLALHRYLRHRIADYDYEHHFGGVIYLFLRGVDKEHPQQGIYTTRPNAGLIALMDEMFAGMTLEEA

[1] = Counterscreen for AddAB inhibitors: absorbance-based bacterial cell-based high throughput dose response assay for inhibitors of bacterial viability. [Related pubchem assays (depositor defined):AID435030, AID449728, AID449731, AID488942, AID488955, AID488956]; format: functional
Cytochrome P450 3A4 = Cytochrome P450 3A4 (Homo sapiens, UniProt P08684);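 note: CYP3A4 tested as one member of a cytochrome P450 panel screen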
Cytochrome P450 3A4, sequence (P08684 whole entry): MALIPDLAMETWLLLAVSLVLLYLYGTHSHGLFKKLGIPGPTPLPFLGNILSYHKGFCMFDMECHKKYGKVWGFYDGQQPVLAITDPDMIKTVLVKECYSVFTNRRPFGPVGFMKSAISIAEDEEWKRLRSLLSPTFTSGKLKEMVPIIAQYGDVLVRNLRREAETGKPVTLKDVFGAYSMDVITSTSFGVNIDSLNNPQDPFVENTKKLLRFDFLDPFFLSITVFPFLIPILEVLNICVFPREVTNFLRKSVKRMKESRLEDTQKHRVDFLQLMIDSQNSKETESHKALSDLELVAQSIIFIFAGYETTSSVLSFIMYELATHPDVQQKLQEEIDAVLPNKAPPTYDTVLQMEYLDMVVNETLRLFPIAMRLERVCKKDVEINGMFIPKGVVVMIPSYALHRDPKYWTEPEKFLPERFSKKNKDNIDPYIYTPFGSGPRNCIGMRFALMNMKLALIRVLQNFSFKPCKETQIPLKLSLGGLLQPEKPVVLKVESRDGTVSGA

[2] = A Cell Based Secondary Assay To Explore Cytotoxicity of Compounds that Sensitize Mycobacterium Tuberculosis to Beta-Lactam Antibiotics.; format: functional
[3] = biological target: T2, High affinity choline transporter 1 (Homo sapiens, UniProt Q9GZV3); experiment: CHT inhibitors, dose response, cell-based, 5-point CRC, membrane potential dye (AID 504840); format: functional
T2 sequence (Q9GZV3 whole entry): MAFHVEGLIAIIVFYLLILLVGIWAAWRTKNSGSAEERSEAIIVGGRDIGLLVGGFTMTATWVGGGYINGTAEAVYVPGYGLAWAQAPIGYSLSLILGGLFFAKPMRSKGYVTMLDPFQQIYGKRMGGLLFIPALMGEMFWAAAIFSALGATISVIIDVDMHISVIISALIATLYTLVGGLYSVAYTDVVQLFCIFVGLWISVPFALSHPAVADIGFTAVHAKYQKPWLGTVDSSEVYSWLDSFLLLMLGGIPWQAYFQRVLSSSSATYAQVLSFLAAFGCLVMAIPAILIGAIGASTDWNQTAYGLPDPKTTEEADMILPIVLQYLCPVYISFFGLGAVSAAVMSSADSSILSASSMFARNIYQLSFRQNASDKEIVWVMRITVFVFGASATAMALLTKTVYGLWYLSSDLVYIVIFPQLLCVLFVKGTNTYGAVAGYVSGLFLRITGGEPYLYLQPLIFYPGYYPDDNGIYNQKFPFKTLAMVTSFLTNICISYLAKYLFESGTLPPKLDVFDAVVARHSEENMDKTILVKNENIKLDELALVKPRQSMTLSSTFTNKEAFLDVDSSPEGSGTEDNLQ

Cytochrome P450 2C9 = Cytochrome P450 2C9 (Homo sapiens, UniProt P11712)
Cytochrome P450 2C9, sequence (P11712 whole entry): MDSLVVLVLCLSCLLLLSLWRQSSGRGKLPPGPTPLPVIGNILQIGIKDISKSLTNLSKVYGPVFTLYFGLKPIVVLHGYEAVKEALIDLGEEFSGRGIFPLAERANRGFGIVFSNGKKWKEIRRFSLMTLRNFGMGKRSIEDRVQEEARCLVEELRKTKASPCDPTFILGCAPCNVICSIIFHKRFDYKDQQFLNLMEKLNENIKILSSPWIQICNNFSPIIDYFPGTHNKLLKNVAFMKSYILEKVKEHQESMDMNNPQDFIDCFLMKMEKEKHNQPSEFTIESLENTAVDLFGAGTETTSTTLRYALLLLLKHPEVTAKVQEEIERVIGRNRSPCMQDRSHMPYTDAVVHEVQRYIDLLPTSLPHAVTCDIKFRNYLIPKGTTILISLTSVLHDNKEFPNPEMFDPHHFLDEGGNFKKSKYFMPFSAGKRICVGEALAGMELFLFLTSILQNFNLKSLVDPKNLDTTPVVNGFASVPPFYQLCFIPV

[4] = biological target: Glucose-6-phosphate 1-dehydrogenase (Homo sapiens, UniProt P11413); experiment: human G6PD enzyme inhibitors, dose response, selectivity assay for P. falciparum G6PD inhibitor project, biochemical, fluorescence (AID 504792); format: functional
Glucose-6-phosphate 1-dehydrogenase, sequence (P11413 whole entry): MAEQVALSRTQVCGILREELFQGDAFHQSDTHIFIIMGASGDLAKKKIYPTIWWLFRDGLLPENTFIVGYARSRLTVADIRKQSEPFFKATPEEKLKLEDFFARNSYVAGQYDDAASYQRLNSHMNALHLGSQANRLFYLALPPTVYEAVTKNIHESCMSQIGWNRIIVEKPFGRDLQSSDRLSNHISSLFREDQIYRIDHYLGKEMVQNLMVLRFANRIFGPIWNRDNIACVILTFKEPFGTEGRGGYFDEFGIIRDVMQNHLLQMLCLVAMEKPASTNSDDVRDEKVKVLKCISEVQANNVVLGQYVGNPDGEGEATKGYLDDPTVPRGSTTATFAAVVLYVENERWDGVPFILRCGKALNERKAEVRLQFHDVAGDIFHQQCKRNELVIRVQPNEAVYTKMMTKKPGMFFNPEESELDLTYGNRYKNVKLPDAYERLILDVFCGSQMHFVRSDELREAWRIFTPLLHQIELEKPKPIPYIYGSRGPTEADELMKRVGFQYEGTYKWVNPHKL

[5] = biological target: Kappa-type opioid receptor (Homo sapiens, UniProt P41145); experiment: SAR analysis of small molecule agonists of the kappa opioid receptor via a luminescent beta-arrestin assay - Set 3. [Related pubchem assays (depositor defined):AID1777, AID1785, AID1786, AID1966, AID2133, AID2136, AID2284, AID2500]; format: functional
Kappa-type opioid receptor, sequence (P41145 whole entry): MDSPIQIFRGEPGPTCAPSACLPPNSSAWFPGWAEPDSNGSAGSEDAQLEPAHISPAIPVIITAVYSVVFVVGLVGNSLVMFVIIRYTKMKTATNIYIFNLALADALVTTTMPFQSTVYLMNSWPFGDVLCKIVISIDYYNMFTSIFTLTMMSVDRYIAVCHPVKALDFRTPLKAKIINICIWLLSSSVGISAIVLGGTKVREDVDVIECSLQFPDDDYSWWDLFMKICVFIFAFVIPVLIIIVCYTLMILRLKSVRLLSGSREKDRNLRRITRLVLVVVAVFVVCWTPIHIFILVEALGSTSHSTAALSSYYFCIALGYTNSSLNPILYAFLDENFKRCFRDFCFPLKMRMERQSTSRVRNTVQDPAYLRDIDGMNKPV

[6] = biological target: T3, Dual specificity protein phosphatase 3 (Homo sapiens, UniProt P51452); experiment: SAR VHR1 absorbance Assay for In Vitro dose response studies. [Related pubchem assays (depositor defined):AID1654, AID1661, AID1878, AID1992, AID2004]
T3 sequence (P51452 whole entry): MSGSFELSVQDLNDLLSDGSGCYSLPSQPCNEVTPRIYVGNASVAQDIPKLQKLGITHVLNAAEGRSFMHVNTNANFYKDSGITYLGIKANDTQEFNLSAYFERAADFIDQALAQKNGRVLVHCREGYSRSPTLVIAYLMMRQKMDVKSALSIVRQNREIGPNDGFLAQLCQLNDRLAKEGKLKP

[7] = biological target: T3, Dual specificity protein phosphatase 3; experiment: SAR VHR1 Fluorescent Assay for In Vitro dose response studies. [Related pubchem assays (depositor defined):AID1654, AID1661, AID1878, AID1992, AID2004, AID2070, AID2085]; format: functional
[8] = biological target: T4, Tyrosine-protein phosphatase non-receptor type 7 (Homo sapiens, UniProt P35236); experiment: redox-dependent HePTP inhibition, mechanism study, biochemical, fluorescence (AID 2068); format: functional
T4 sequence (P35236 whole entry): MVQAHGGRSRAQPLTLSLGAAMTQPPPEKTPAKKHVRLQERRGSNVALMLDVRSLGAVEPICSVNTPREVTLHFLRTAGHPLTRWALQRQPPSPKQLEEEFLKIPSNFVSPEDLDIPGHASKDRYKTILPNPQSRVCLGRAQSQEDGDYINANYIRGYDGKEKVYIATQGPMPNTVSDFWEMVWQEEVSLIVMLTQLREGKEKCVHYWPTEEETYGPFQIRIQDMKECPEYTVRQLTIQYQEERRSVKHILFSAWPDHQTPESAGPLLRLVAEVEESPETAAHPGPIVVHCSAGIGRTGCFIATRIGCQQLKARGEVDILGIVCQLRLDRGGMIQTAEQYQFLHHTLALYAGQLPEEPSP

[9] = biological target: T5, Dual specificity protein phosphatase 6 (Rattus norvegicus, UniProt Q64346); format: functional;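 note: confirmatory in vitro dose-response testing of MKP-3 inhibition; recombinant His-tagged MKP-3 made in E. coli BL21 with OMFP substrate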
T5 sequence (Q64346 whole entry): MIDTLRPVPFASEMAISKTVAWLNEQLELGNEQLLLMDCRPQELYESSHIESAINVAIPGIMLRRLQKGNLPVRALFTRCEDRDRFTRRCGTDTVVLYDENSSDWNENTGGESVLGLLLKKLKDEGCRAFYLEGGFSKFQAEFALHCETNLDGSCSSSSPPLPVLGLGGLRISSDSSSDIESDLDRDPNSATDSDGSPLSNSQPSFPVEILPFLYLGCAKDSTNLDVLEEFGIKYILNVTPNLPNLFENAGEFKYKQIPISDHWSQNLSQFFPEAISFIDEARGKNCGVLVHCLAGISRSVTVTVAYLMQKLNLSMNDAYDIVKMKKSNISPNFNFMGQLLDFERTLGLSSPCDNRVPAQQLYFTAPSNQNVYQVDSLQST

Keap1/Nrf2 = Keap1/Nrf2 (Homo sapiens, UniProt Q14145); experiment: Keap1-Nrf2 protein-protein interaction inhibitors, dose response, biochemical, fluorescence polarization, cherry-picked samples (AID 588683)
Keap1/Nrf2, sequence (Q16236 whole entry): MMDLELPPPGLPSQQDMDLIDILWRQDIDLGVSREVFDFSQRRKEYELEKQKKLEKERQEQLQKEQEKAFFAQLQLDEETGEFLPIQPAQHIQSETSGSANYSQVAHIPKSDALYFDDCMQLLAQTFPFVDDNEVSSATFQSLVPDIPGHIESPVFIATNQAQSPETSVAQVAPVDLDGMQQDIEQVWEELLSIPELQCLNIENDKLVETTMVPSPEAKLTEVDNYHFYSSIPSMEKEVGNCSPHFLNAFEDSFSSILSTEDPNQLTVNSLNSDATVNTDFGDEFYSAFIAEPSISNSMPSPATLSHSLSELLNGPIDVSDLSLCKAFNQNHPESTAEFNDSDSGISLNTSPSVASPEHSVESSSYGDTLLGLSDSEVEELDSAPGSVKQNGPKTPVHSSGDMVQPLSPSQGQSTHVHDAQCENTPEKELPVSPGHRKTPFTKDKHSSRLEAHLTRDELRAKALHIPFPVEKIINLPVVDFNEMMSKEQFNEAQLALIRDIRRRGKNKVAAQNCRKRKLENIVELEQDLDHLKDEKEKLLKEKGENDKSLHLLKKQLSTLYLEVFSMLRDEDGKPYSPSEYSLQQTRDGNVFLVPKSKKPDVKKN
Keap1/Nrf2, sequence (Q14145 whole entry): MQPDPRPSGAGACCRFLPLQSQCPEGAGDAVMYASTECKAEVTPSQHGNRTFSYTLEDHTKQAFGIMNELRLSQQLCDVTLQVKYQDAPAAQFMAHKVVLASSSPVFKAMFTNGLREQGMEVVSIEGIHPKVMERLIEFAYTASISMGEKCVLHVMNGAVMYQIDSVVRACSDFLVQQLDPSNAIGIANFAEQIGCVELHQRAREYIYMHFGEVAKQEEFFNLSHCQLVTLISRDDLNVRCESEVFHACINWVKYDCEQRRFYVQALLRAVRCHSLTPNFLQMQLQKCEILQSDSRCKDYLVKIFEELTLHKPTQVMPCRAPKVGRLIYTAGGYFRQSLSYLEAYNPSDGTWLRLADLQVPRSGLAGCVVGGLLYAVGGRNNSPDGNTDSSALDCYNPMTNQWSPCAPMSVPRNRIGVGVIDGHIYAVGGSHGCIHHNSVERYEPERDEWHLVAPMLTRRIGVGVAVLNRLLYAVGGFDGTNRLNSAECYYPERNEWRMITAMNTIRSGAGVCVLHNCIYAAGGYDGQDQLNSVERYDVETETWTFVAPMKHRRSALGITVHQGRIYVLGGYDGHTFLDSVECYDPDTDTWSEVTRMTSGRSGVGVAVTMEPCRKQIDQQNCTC

[10] = biological target: T3, Dual specificity protein phosphatase 3; experiment: VHR1 phosphatase inhibitors, primary screen, biochemical, absorbance, uHTS (AID 1654)
[11] = biological target: T3, Dual specificity protein phosphatase 3; experiment: VHR1 phosphatase inhibitors, biochemical (AID 1878)
[12] = biological target: T5, Dual specificity protein phosphatase 6; experiment: MKP-3 phosphatase inhibitors, primary screen, biochemical, rat enzyme, in vitro (AID 425)

For `Cc1cc2c(c(=O)o1)C(c1ccc([N+](=O)[O-])o1)C(C#N)=C(N)O2` (centres undefined), the IC50 (Exodeoxyribonuclease V) was > 119 µM (inactive) and the IC50 [1] was 102 µM (inactive).

With `Cn1cccc1C(=O)N1CCC2(CC1)CN(c1ccccn1)C2` the AC50 (Cytochrome P450 3A4) was “inconclusive”.

In the case of `CN1CCN(S(=O)(=O)c2ccc(NC(=O)c3ccc(Br)s3)cc2)CC1`, the CC50 [2] was > 40 µM (active) and the IC50 [3] was 16.6 µM (active).

With `COc1ccc(C(=O)NC2CCCCC2)cc1OC1CCN(C(C)C)CC1` the IC50 [3] was 17.4 µM (active).

For `COc1cccc(Cn2c(=O)c(-c3ccc(Cl)cc3)nc3cnc(N4CCN(C)CC4)nc32)c1`, the AC50 (Cytochrome P450 3A4) was “inconclusive”.

In the case of `CC(=O)N1CCC2(CC1)CCN(C(c1ccccc1)c1ccccc1)CC2`, the AC50 (Cytochrome P450 2C9) was 39.8 µM (inconclusive) and the AC50 (Cytochrome P450 3A4) was “inconclusive”.

With `COc1c(O)c(O)c2oc(-c3ccccc3)cc(=O)c2c1OC` the IC50 (Exodeoxyribonuclease V) was > 119 µM (inactive), the IC50 [4] was > 80 µM (inactive) and the IC50 [1] was > 119 µM (inactive).

With `Cc1cccc(C)c1OCc1cc(C(=O)N(C)Cc2nc3ccccc3[nH]2)no1` the IC50 (Exodeoxyribonuclease V) was > 119 µM (inactive) and the IC50 [1] was > 119 µM (inactive).

With `Clc1ccc(CSc2nnc(-c3ccccn3)n2Cc2cccnc2)cc1Cl` the EC50 [5] was 0.756 µM (active).

For `Clc1ccc(CSc2nnc(-c3ccccn3)n2Cc2ccccc2)cc1Cl`, the EC50 [5] was 1.24 µM (active).

In the case of `CC(C)NC(=S)c1cn(CCOc2ccccc2)c2ccccc12`, the IC50 [6] was > 100 µM (inactive), the IC50 [7] was > 100 µM (inactive) and the IC50 [8] was > 100 µM (inactive). The IC50 [9] was > 100 µM (inactive).

In the case of `Cc1cc(C)c(C)c(S(=O)(=O)Nc2cccc(S(=O)(=O)Nc3ccccc3C(=O)O)c2)c1C`, the AC50 (Keap1/Nrf2) was > 52 µM (inactive).

With `Oc1c(Br)cc(/C=N/n2c(S)nnc2-c2ccccc2)c(Br)c1O` the IC50 [10] was < 1.23 µM (inactive), the IC50 [11] was 2.39 µM (active) and the IC50 [12] was 90.3 µM (active).
